Results reported in the supplement of paper PMC8882468.
± gives the standard deviation of the averaged measurements.

Columns and labels:
Assay in all cases: CTG-3D luminescence at 96 h relative to day-0 seeding control (ratio to day 0); higher = more growth / less cytotoxicity; PDxO 3D drug screen, 96 h, CTG-3D normalised to day-0 seeding control.
[1] = system: HCI-011.E2 (organoid from an ER-positive breast cancer xenograft)
[2] = system: MDA-MB-231
[3] = system: HCI-008 (organoid from a HER2-enriched breast cancer xenograft)
[4] = system: HCI-015 (organoid from a triple-negative breast cancer xenograft)
[5] = system: HCI-017.E2 (organoid from an ER-positive breast cancer xenograft)
[6] = system: HCI-027 (organoid from a triple-negative breast cancer xenograft)
[7] = system: HCI-005.E2 (organoid from a breast cancer xenograft with a HER2-positive history)

O=C(/C=C/c1cccnc1)NCCCCC1CCN(C(=O)c2ccccc2)CC1 [FK866]
CTG-3D luminescence at 96 h
Conditions	12.5 pM	0.00025 µM	0.005 µM	0.1 µM	1 µM	10 µM	100 µM	625 fM
[1]	1.74 ± 0.37	1.7 ± 0.019	1.37 ± 0.047	1.62 ± 0.38	1.48 ± 0.58	1.75 ± 0.66	1.55 ± 0.32	1.87 ± 0.63
[2]	4.37 ± 1.3	4.45 ± 1.5	3.77 ± 1.3	0.298 ± 0.16	0.237 ± 0.14	0.236 ± 0.13	0.146 ± 0.08	4.49 ± 1.3
[5]	1.61 ± 0.73	1.98 ± 0.36	0.93 ± 0.32	0.759 ± 0.65	0.847 ± 0.7	0.866 ± 0.81	0.328 ± 0.036	1.39 ± 1.2
[7]	1.39 ± 0.24	1.97 ± 0.33	1.39 ± 0.55	0.142 ± 0.22	0.135 ± 0.23	0.267 ± 0.47	0.166 ± 0.29	1.93 ± 0.57

CTG-3D luminescence at 96 h
Conditions	12.5 pM	0.00025 µM	0.005 µM	0.1 µM	1 µM	10 µM	100 µM	625 fM
[1], days in culture: 74	2.62	2.62	2.29	1.99	2.77	2.79	2.06	2.32
[3], days in culture: 228	1.646 ± 0.0026	1.91 ± 0.069	0.904 ± 0.53	0.206 ± 0.072	0.125 ± 0.022	0.168 ± 0.049	0.162 ± 0.077	1.38 ± 0.11
[3], days in culture: 244	1.37	1.87	1.86	0.263	0.186	0.197	0.173	1.82
[4], days in culture: 172	2.55	0.705	0.752	0.206	0.213	0.158	0.29	2.38
[4], days in culture: 191	2.04	1.32	0.805	0.141	0.243	0.167	0.215	1.64
[4], days in culture: 218	1.79	1.55	0.648	0.169	0.147	0.133	0.158	1.86
[5], days in culture: 85	2.98	3.2	2.28	0.984	0.928	0.889	0.391	2.15
[6], days in culture: 176	1.98	1.8	0.365	0.104	0.104	0.0553	0.082	2.22
[6], days in culture: 194	1.77	1.47	0.26	0.049	0.0511	0.0527	0.0718	1.63
[6], days in culture: 201	1.55	1.66	0.166	0.0645	0.0296	0.0561	0.0649	1.74
